Laboratory results from US12083100B1, “Antiparasitic isoxazoline compounds, long-acting injectable formulations comprising them, methods and uses thereof” (BOEHRINGER INGELHEIM ANIMAL HEALTH USA INC., priority 2016, dated 2024).

Experiments:
[1] = test system: Rhipicephalus microplus ticks; test: Efficacy of injectable formulation against Rhipicephalus (Boophilus) microplus ticks on cattle; format: in vivo; conditions: for Average % Efficacy (Tick Count): vs untreated control
Procedure: The efficacy of long-acting injectable compositions of the invention comprising the compounds of formula (Ie) and (S)-Ie, against Rhipicephalus microplus ticks on cattle was determined against an untreated control group. The efficacy of compositions comprising the compounds (Ie) and (S)-e were also compared with injectable compositions comprising afoxolaner (formula Ia, 4-[5-[3-chloro-5-(trifluoromethyl)phenyl]-4,5-dihydro-5-(trifluoromethyl)-3-isoxazolyl]-N-[2-oxo-2-[(2,2,2-trifluoroethyl)amino]ethyl]-1-naphthalanecarboxamide), and comparative compounds of formulae (If) and (S)-If shown below.
Each compound was formulated in an injectable composition at a concentration of 10% (w/v) in a carrier comprising 8% (w/v) ethanol and Q.S. with polyethylene glycol 400. The racemic compounds afoxolaner and (If) were dosed at 1.0 mg/kg body weight and the (S)-enantiomers ((S)-Ie and (S)-If) were dosed at 0.5 mg/kg body weight. Six healthy head of cattle were used in each study group. Cattle in Group 1 were untreated (control). Cattle in Groups 2, 3, 4, 5 and 6 were treated on Day 0 subcutaneously with injectable compositions comprising the compounds of formula Ie, (S)-If, (S)-Ie, afoxolaner (Ia) and (If), respectively. Several weeks before treatment, cattle were infested three times a week with approximately 2500 Rhipicephalus microplus larvae to establish ongoing infestations. Each animal was challenged by infestation with approximately 5000 R. microplus larvae on Days 7 and 21 and every 14 days thereafter. Ticks dropping from each animal in the previous 24 hours were collected daily and counted from Day 1 until the end of the study.

[2] = test system: Haematobia irritans (horn fly); test: Efficacy of long-acting injectable composition against Haematobia irritans (horn fly) on cattle; format: in vivo; conditions: naturally infested cattle, 10% (w/v) composition at 0.25 mL/50 kg body weight
Procedure: The efficacy of a long-acting injectable composition comprising the compound of formula (S)-Ie against horn fly on cattle was evaluated. Two groups of 15 cattle were selected for the study and randomly assigned to one of two groups. The cattle in Group 1 were untreated and the cattle in Group 2 were treated with a long-acting composition of the invention containing 10% (w/v) of the compound of formula (S)-Ie in a carrier comprising 8% (w/v) ethanol in PEG 400 (QS). The composition was administered to the cattle in Group 2 at a dose of 0.25 mL/50 kg body weight. Each animal was naturally infested with horn flies, and horn fly counts were performed on Days-2, 3, 7, 10, 13, 16, 20, 23, 27, 30, 34, 37, 43, 45 and 48. Tables 2A and 2B below provide the horn fly counts and the % reduction of the treated group relative to the control.

[3] = injectable composition, compared with afoxolaner, (If) or (S)-If

For `O=C(CNC(=O)c1ccc(C2=NO[C@@](c3cc(Cl)c(F)c(C(F)(F)F)c3)(C(F)(F)F)C2)c2ccccc12)NCC(F)(F)F` [(S)-Ie], the “Average % Efficacy (Tick Count)” value ([1]; Day 5, 0.5 mg/kg subcutaneous on Day 0 ((S)-enantiomers)) was 66%, the “Average % Efficacy (Tick Count)” value ([1]; Day 10, 0.5 mg/kg subcutaneous on Day 0 ((S)-enantiomers)) was 93% and the “Average % Efficacy (Tick Count)” value ([1]; Day 20, 0.5 mg/kg subcutaneous on Day 0 ((S)-enantiomers)) was 100%. For the same molecule, the “Average % Efficacy (Tick Count)” value ([1]; Day 30, 0.5 mg/kg subcutaneous on Day 0 ((S)-enantiomers)) was 100%, the “Average % Efficacy (Tick Count)” value ([1]; Day 40, 0.5 mg/kg subcutaneous on Day 0 ((S)-enantiomers)) was 100% and the “Average % Efficacy (Tick Count)” value ([1]; Day 49, 0.5 mg/kg subcutaneous on Day 0 ((S)-enantiomers)) was 100%. The “Average % Efficacy (Tick Count)” value ([1]; Day 55, 0.5 mg/kg subcutaneous on Day 0 ((S)-enantiomers)) was 100%, the “Average % Efficacy (Tick Count)” value ([1]; Day 60, 0.5 mg/kg subcutaneous on Day 0 ((S)-enantiomers)) was 100% and the “Average % Efficacy (Tick Count)” value ([1]; Day 65, 0.5 mg/kg subcutaneous on Day 0 ((S)-enantiomers)) was 100%. The “Average % Efficacy (Tick Count)” value ([1]; Day 70, 0.5 mg/kg subcutaneous on Day 0 ((S)-enantiomers)) was 100%, the “Average % Efficacy (Tick Count)” value ([1]; Day 75, 0.5 mg/kg subcutaneous on Day 0 ((S)-enantiomers)) was 100% and the “Average % Efficacy (Tick Count)” value ([1]; Day 80, 0.5 mg/kg subcutaneous on Day 0 ((S)-enantiomers)) was 100%. The “Average % Efficacy (Tick Count)” value ([1]; Day 85, 0.5 mg/kg subcutaneous on Day 0 ((S)-enantiomers)) was 90%, the “Average % Efficacy (Tick Count)” value ([1]; Day 88, 0.5 mg/kg subcutaneous on Day 0 ((S)-enantiomers)) was 88% and the “Average % Efficacy (Tick Count)” value ([1]; Day 95, 0.5 mg/kg subcutaneous on Day 0 ((S)-enantiomers)) was 92%. The “Average % Efficacy (Tick Count)” value ([1]; Day 100, 0.5 mg/kg subcutaneous on Day 0 ((S)-enantiomers)) was 88%, the “Average % Efficacy (Tick Count)” value ([1]; Day 105, 0.5 mg/kg subcutaneous on Day 0 ((S)-enantiomers)) was 76% and the “Average % Efficacy (Tick Count)” value ([1]; Day 110, 0.5 mg/kg subcutaneous on Day 0 ((S)-enantiomers)) was 65%. The “efficacy and duration of activity against Rhipicephalus microplus compared with other isoxazoline compounds” value [1, 3] was “surprising and unexpected efficacy”, the “speed of onset of efficacy against Rhipicephalus microplus compared with other isoxazoline compounds” value [1, 3] was “faster-acting” and the “% Reduction of horn fly counts of the treated group relative to the control” value ([2]; Day 3) was 89.5%. For the same molecule, the “Arithmetic Mean of Horn Fly Counts” value ([2]; Day 3) was 26.7, the “% Reduction of horn fly counts of the treated group relative to the control” value ([2]; Day 7) was 74.3% and the “Arithmetic Mean of Horn Fly Counts” value ([2]; Day 7) was 35.0. For the same molecule, the “% Reduction of horn fly counts of the treated group relative to the control” value ([2]; Day 10) was 79.6%, the “Arithmetic Mean of Horn Fly Counts” value ([2]; Day 10) was 16.0 and the “% Reduction of horn fly counts of the treated group relative to the control” value ([2]; Day 13) was 63.3%. The “Arithmetic Mean of Horn Fly Counts” value ([2]; Day 13) was 22.0, the “% Reduction of horn fly counts of the treated group relative to the control” value ([2]; Day 16) was 57.3% and the “Arithmetic Mean of Horn Fly Counts” value ([2]; Day 16) was 44.7. For the same molecule, the “% Reduction of horn fly counts of the treated group relative to the control” value ([2]; Day 20) was 56.6%, the “Arithmetic Mean of Horn Fly Counts” value ([2]; Day 20) was 36.0 and the “% Reduction of horn fly counts of the treated group relative to the control” value ([2]; Day 23) was 42.5%. The “Arithmetic Mean of Horn Fly Counts” value ([2]; Day 23) was 30.7, the “% Reduction of horn fly counts of the treated group relative to the control” value ([2]; Day 27) was 61.8% and the “Arithmetic Mean of Horn Fly Counts” value ([2]; Day 27) was 22.7. For the same molecule, the “% Reduction of horn fly counts of the treated group relative to the control” value ([2]; Day 30) was 67.6%, the “Arithmetic Mean of Horn Fly Counts” value ([2]; Day 30) was 23.0 and the “% Reduction of horn fly counts of the treated group relative to the control” value ([2]; Day 34) was 44.8%. The “Arithmetic Mean of Horn Fly Counts” value ([2]; Day 34) was 26.3, the “% Reduction of horn fly counts of the treated group relative to the control” value ([2]; Day 37) was 61.8% and the “Arithmetic Mean of Horn Fly Counts” value ([2]; Day 37) was 28.0. The “% Reduction of horn fly counts of the treated group relative to the control” value ([2]; Day 43) was 39.5%, the “Arithmetic Mean of Horn Fly Counts” value ([2]; Day 43) was 26.0 and the “% Reduction of horn fly counts of the treated group relative to the control” value ([2]; Day 45) was 35.5%. For the same molecule, the “Arithmetic Mean of Horn Fly Counts” value ([2]; Day 45) was 43.0, the “% Reduction of horn fly counts of the treated group relative to the control” value ([2]; Day 48) was 31.1% and the “Arithmetic Mean of Horn Fly Counts” value ([2]; Day 48) was 30.3.
